Legend:
[1] = Differential scanning calorimetry (DSC) thermal analysis; format: physicochemical; conditions: crystalline solid; linear heating ramp of 10° C./min from 22° C. to 250° C.
Experimental: Differential scanning calorimetry (DSC) was performed using a TA Instruments Model Q-100 module with a Thermal Analyst controller. Data were collected and analyzed using TA Instruments Thermal Solutions software. A 2.05 mg sample of the crystalline compound of Example 1 was accurately weighed into a covered aluminum pan. After a 5 minute isothermal equilibration period at 22° C., the sample was heated using a linear heating ramp of 10° C./min from 22° C. to 250° C.
A 1.12 mg sample of the crystalline compound of Example 2 was similarly evaluated.

[2] = Thermogravimetric analysis (TGA); format: physicochemical; conditions: crystalline solid; from room temperature to 150.0° C.

thermal stability: no thermal decomposition below (DSC thermograph) [1] | loss of weight (residual moisture or solvent), TGA trace [2] | Compound
≥ 150.0 °C | – | CCOc1nc(CC)c(CNC(=O)[C@H](CC(C)C)SC(C)=O)n1Cc1ccc(-c2ccccc2C(=O)O)cc1F [Example 2, 4′-{5-[((S)-2-acetylsulfanyl-4-methylpentanoylamino)methyl]-2-ethoxy-4-ethylimidazol-1-ylmethyl}-3′-fluorobiphenyl-2-carboxylic acid]
≥ 150.0 °C | < 0.5% | CCOc1nc(CC)c(CN)n1Cc1ccc(-c2ccccc2C(=O)OC(C)(C)C)cc1F [Example 1, 4′-(5-aminomethyl-2-ethoxy-4-ethylimidazol-1-ylmethyl)-3′-fluorobiphenyl-2-carboxylic acid t-butyl ester]
